Test results published in patent publication US9326978B2, “A3 adenosine receptor allosteric modulators” (The United States of America, Represented by the Secretary, …, priority 2006, dated 2016).

Experiments:
human A3ARs [1] = target: T1, human A3ARs (Homo sapiens (Human), UniProt P0DMS8); assay: Cyclic AMP accumulation assay, efficacy at hA3AR; format: cell-based; details: compared to maximal effect by 2-Cl-IB-MECA alone (control = 100%)
Experimental: Intracellular cyclic AMP levels were measured with a competitive protein binding method (Nordstedt and Fredholm, 1990). CHO cells that expressed recombinant human A3ARs were harvested by trypsinization. After centrifugation and resuspension in medium, cells were plated in 24-well plates in 0.5 ml medium. After 24 hr, the medium was removed and cells were washed three times with 1 ml DMEM, containing 50 mM HEPES, pH 7.4. Cells were then treated with agonists and/or test compounds in the presence of rolipram (10 μM) and adenosine deaminase (3 units/ml). After 45 min forskolin (10 μM) was added to the medium, and incubation was continued an additional 15 min. The reaction was terminated by removing the supernatant, and cells were lysed upon the addition of 200 μL of 0.1 M ice-cold HCl. The cell lysate was resuspended and stored at −20° C. For determination of cyclic AMP production, protein kinase A (PKA) was incubated with [^3H]cyclic AMP (2 nM) in K2HPO4/EDTA buffer (K2HPO4, 150 mM; EDTA, 10 mM), 20 μL of the cell lysate, and 30 μL 0.1 M HCl or 50 μL of cyclic AMP solution (0-16 pmol/200 μL for standard curve). Bound radioactivity was separated by rapid filtration through Whatman GF/C filters and washed once with cold buffer. Bound radioactivity was measured by liquid scintillation spectrometry.

human A3AR = human A3AR (Homo sapiens (Human), UniProt P0DMS8); assay: Competitive binding assay to the human A3AR ([125I]I-AB-MECA); details: for inhibition at 10 µM: 1 h, read-out: hA3AR % displ. at 10 μM; for inhibition at 10 µM / Ki: [125I]I-AB-MECA (0.5 nM), CHO cells, Table 2; for Ki: read-out: Ki(hA3AR)
Experimental: (§1) CHO (Chinese hamster ovary) cells expressing the recombinant human ARs (HEK-293 cells were used for the human A2AAR) were cultured in DMEM and F12 (1:1) supplemented with 10% fetal bovine serum, 100 units/ml penicillin, […] streptomycin and 2 μmol/ml glutamine. Cells were harvested by trypsinization. After homogenization and suspension, cells were centrifuged at 500 g for 10 min, and the pellet was re-suspended in 50 mM Tris.HCl buffer (pH 7.4) containing 10 mM MgCl2. The suspension was homogenized with an electric homogenizer for 10 sec, and was then re-centrifuged at 20,000 g for 20 min at 4° C. The resultant pellets were resuspended in buffer in the presence of 3 Units/mL adenosine deaminase, and the suspension was stored at −80° C. until the binding experiments. The protein concentration was measured using the Bradford assay.
Each tube in the competitive binding assay contained 100 μl membrane suspension (20 μg protein), 50 μl [^125I]-AB-MECA (0.5 nM), and 50 μl of increasing concentrations of the test ligands in Tris.HCl buffer (50 mM, pH 8.0) containing 10 mM MgCl2, 1 mM EDTA. Nonspecific binding was determined using 10 μM of 5′-N-ethylcarboxamidoadenosine in the buffer. The mixtures were incubated at 25° C. for 60 min. Binding reactions were terminated by filtration through Whatman GF/B filters under reduced pressure using a MT-24 cell harvester (Brandell, Gaithersburgh, Md., USA). Filters were washed three times with 9 mL ice-cold buffer. Radioactivity was determined in a Beckman 5500B γ-counter.

human A3ARs [2] = target: T1, human A3ARs; assay: Dissociation kinetics of [125I]I-AB-MECA from human A3ARs; format: binding; details: 0.5 h, % decrease of dissociation at 30 min, residual binding of [125I]AB-MECA after 30 min = 100%, Table 2, read-out: hA3AR Ag. Dissociation at 10 μM
Experimental: The dissociation of [^125I]I-AB-MECA was measured as follows. Membranes (20 μg) were preincubated at 25° C. with 0.5 nM [^125I]I-AB-MECA, in a total volume of 100 μl of Tris-HCl buffer (50 mM, pH 8.0) containing 10 mM MgCl2, and 1 mM EDTA for 60 min. The dissociation was then initiated by the addition of 3 μM Cl-IB-MECA with or without allosteric modulators. The time course of dissociation of total binding was measured by rapid filtration at appropriate time intervals. Nonspecific binding was measured after 60-min incubation in the presence of 3 μM Cl-IB-MECA. Further assay was as described above.

hA2BAR = hA2BAR (Homo sapiens (Human), UniProt P29275); assay: Effect on NECA-induced cyclic AMP accumulation at A2B receptor; also: NECA (150 nM)-induced cyclic AMP accumulation; format: cell-based; details: read-out: hA2BAR % inhib. at 10 μM
human A2A AR = human A2A AR (Homo sapiens (Human), UniProt P29274); assay: Binding assay to the human A2A AR ([3H]CGS21680); details: [3H]CGS 21680 (15 nM), HEK293 cells, Table 2; for Ki: read-out: Ki(hA2AAR)
Experimental: as §1
(§2) For binding to the human A1AR, [^3H]R-PIA (2 nM) was incubated with membranes (40 μg/tube) from CHO cells stably expressing the human A1AR at 25° C. for 60 min in 50 mM Tris.HCl buffer (pH 7.4; MgCl2, 10 mM) in a total assay volume of 200 μL. Nonspecific binding was determined using 10 μM of N^6-cyclopentyladenosine. For human A2A AR binding, membranes (20 μg/tube) from HEK-293 cells stably expressing the human A2A AR were incubated with 15 nM [^3H]CGS21680 at 25° C. for 60 min in 200 μL of 50 mM Tris.HCl, pH 7.4, containing 10 mM MgCl2. N-5′-ethyluronamidoadenosine (10 μM) was used to define nonspecific binding. Reaction was terminated by filtration with GF/B filters.

human A1AR = human A1AR (Homo sapiens (Human), UniProt P30542); assay: Binding assay to the human A1AR ([3H]R-PIA); details: [3H]R-PIA (2.0 nM), CHO cells, Table 2; for inhibition at 10 µM: 1 h, read-out: hA1AR % displ. at 10 μM; for Ki: read-out: Ki(hA1AR)
Experimental: as §1, §2

human A2A AR, sequence (P29274 whole entry): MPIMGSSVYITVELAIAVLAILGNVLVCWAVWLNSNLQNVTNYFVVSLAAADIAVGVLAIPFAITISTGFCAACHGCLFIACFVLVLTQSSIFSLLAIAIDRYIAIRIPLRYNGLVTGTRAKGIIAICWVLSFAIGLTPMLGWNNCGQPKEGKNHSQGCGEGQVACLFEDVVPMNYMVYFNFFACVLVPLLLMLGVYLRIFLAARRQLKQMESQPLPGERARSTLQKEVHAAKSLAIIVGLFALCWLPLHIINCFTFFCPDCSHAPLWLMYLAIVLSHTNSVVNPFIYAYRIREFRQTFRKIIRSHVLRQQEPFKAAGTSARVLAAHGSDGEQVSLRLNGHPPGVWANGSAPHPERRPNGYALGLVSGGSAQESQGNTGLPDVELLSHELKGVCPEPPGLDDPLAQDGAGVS
T1 sequence (P0DMS8 whole entry): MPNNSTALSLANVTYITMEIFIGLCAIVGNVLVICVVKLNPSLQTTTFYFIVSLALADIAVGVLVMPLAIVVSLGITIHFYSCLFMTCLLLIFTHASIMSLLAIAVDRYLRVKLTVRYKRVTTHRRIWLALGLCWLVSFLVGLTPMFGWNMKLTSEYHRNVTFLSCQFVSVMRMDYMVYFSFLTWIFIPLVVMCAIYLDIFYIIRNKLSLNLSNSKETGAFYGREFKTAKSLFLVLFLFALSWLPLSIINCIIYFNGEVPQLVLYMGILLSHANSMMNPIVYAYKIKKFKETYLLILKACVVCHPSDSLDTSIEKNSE
human A3AR, sequence (P0DMS8 whole entry): as above
hA2BAR, sequence (P29275 whole entry): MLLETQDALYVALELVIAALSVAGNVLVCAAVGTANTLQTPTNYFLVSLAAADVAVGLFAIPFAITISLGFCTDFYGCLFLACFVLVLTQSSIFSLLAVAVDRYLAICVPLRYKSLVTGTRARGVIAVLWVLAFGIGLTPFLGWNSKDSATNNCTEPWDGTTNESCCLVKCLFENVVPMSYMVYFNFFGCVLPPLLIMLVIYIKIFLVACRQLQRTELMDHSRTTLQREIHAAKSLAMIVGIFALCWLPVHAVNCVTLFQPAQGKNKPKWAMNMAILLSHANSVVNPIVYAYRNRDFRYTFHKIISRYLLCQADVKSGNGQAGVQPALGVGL
human A1AR, sequence (P30542 whole entry): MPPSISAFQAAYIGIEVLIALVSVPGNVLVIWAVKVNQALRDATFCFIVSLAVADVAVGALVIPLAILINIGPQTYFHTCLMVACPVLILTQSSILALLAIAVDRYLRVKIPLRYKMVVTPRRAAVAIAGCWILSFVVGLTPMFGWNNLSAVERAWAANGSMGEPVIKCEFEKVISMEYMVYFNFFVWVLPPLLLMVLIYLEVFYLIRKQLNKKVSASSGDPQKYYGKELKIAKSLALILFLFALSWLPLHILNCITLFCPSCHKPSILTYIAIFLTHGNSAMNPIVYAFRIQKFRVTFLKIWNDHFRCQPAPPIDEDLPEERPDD

| % Increase of efficacy at hA3AR at 10 μM (human A3ARs [1]) | inhibition at 10 µM (human A3AR) | activity at 10 µM (human A3ARs [2]) | inhibition at 10 µM (hA2BAR) | melting point | hA2AAR % displ. at 10 μM (human A2A AR) | inhibition at 10 µM (human A1AR) | Structure (SMILES) | Ki (human A3AR) | Ki (human A2A AR) | Ki (human A1AR) | affinity to orthosteric versus allosteric binding sites (selective affinity) (human A3AR; orthosteric sites of A1, A2A, A2B, A3 receptors vs allosteric site of A3 adenosine receptor) |
| --- | --- | --- | --- | --- | --- | --- | --- | --- | --- | --- | --- |
| 137 ± 4% | 84% | 154 ± 7% | -11.6% | 95 to 97 °C | 91% | 52% | c1ccc(CCNc2nc3ccccc3c3[nH]c(C4CCCC4)nc23)cc1 [Compound 41, N-(Phenylethyl)-2-cyclopentyl-1H-imidazo[4,5-c]quinolin-4-amine] | – | – | – | – |
| 136 ± 3% | 82% | 159 ± 5% | -10.2% | 189 to 190 °C | (17%) | 22% | Clc1ccc(Nc2nc3ccccc3c3[nH]c(C4CCCC4)nc23)cc1 [Compound 34, N-(4-Chloro-phenyl)-2-cyclopentyl-1H-imidazo[4,5-c]quinolin-4-amine] | 1.61 ± 0.55 µM | > 10 µM | > 10 µM | – |
| 109 ± 3% | 80% | 101 ± 13% | 0.3% | 245 to 247 °C | 60% | 59% | COc1ccc(CNc2nc3ccccc3c3[nH]c(C4CCCC4)nc23)cc1 [Compound 38, N-(4-Methoxy-benzyl)-2-cyclopentyl-1H-imidazo[4,5-c]quinolin-4-amine] | – | – | – | – |

| Structure (SMILES) | % Increase of efficacy at hA3AR at 10 μM (human A3ARs [1]) | inhibition at 10 µM (human A3AR) | activity at 10 µM (human A3ARs [2]) | inhibition at 10 µM (hA2BAR) | melting point | hA2AAR % displ. at 10 μM (human A2A AR) | inhibition at 10 µM (human A1AR) | Ki (human A3AR) | Ki (human A2A AR) | Ki (human A1AR) | affinity to orthosteric versus allosteric binding sites (selective affinity) (human A3AR; orthosteric sites of A1, A2A, A2B, A3 receptors vs allosteric site of A3 adenosine receptor) |
| --- | --- | --- | --- | --- | --- | --- | --- | --- | --- | --- | --- |
| Clc1ccc(Nc2nc3ccccc3c3[nH]c(C4CCCC4)nc23)cc1Cl [Compound 33, N-(3,4-Dichloro-phenyl)-2-cyclopentyl-1H-imidazo[4,5-c]quinolin-4-amine] | 141 ± 5% | 67% | 144 ± 9% | -6.7% | 114 to 115 °C | (0%) | 15% | 4.69 ± 0.97 µM | > 10 µM | > 10 µM | selective affinity |
